Measured values: the NIST ThermoML archive (doi:10.1016/j.jct.2016.09.022)

Tests used:
[1] = Liquid; for speed of sound: Frequency=1.5 MHz, Single path-length method; for mass density: 298.15 K, 101.33 kPa, Vibrating tube method
[2] = refractive index (Na D-line) (dimensionless); conditions: 298.15 K; 101.33 kPa; Liquid; Standard Abbe refractometry

CCCCCCCC [octane]
speed of sound [m/s], [1]
Conditions | 283.15 K | 293.15 K | 303.15 K | 313.15 K | 323.15 K | 333.15 K | 343.15 K
100 kPa | 1234.6 | 1193.7 | 1151.8 | 1112.1 | 1071.1 | 1030.9 | 990.7
5100 kPa | 1267.1 | 1227.9 | 1187.6 | 1149 | 1110.4 | 1072.4 | 1034.3
10100 kPa | 1296.9 | 1259.5 | 1221 | 1183.4 | 1146.1 | 1110.1 | 1074.2
20100 kPa | 1353.6 | 1317.2 | 1282.1 | 1247.3 | 1212.3 | 1178.2 | 1145
30100 kPa | 1405.7 | 1370.4 | 1336.8 | 1303.8 | 1271.6 | 1239.8 | 1208.7
40100 kPa | 1453.5 | 1419.6 | 1388.1 | 1356.4 | 1325.3 | 1295 | 1265.9
50100 kPa | 1498 | 1465.6 | 1435.5 | 1405.1 | 1375.2 | 1346.2 | 1318
60100 kPa | 1539.8 | 1508.4 | 1480 | 1450.7 | 1421.8 | 1393.9 | 1367.8
70100 kPa | 1579.8 | 1549 | 1521.7 | 1493.2 | 1465.5 | 1438.5 | 1412.8
80100 kPa | 1619 | 1587.3 | 1561.4 | 1533.6 | 1506.6 | 1480.2 | 1455.5
90100 kPa | 1652.4 | 1623.9 | 1598.9 | 1571.9 | 1545.7 | 1519.8 | 1496
95100 kPa | 1670.7 | 1641.8 | 1617 | 1590.2 | 1564.5 | 1539 | 1515.2

Conditions | mass density [kg/m3] | refractive index
[1] | 698.4 | –
[2] | – | 1.3951

Cc1ccccc1 [toluene]
speed of sound [m/s], [1]
Conditions | 283.15 K | 293.15 K | 303.15 K | 313.15 K | 323.15 K | 333.15 K | 343.15 K
100 kPa | 1369.5 | 1327.9 | 1284.1 | 1241.9 | 1200.2 | 1156.6 | 1118
5100 kPa | 1395.4 | 1352.2 | 1309.8 | 1269 | 1229.2 | 1187.4 | 1149.1
10100 kPa | 1418.1 | 1376 | 1334.3 | 1294.5 | 1256.4 | 1215.9 | 1178.9
20100 kPa | 1460.8 | 1420.5 | 1380.9 | 1341 | 1306.4 | 1268.1 | 1234.3
30100 kPa | 1500.8 | 1462 | 1424 | 1387 | 1352.7 | 1315.7 | 1283.9
40100 kPa | 1538.7 | 1500.9 | 1464.7 | 1429.5 | 1396.3 | 1360.3 | 1329.5
50100 kPa | 1574.4 | 1537.9 | 1503.3 | 1468.9 | 1436.9 | 1402.7 | 1371.4
60100 kPa | 1608.1 | 1572.4 | 1539.6 | 1506.4 | 1474.9 | 1441.4 | 1413.5
70100 kPa | 1640.3 | 1605.2 | 1572.1 | 1542.7 | 1511 | 1478.2 | 1451.5
80100 kPa | 1670.9 | 1637 | 1605.2 | 1576.1 | 1545.3 | 1513.1 | 1487.6
90100 kPa | 1700.3 | 1667.1 | 1638.2 | 1607.4 | 1576.7 | 1546.5 | 1522.1
95100 kPa | 1714.5 | 1682 | 1653.5 | 1621.2 | 1591.2 | 1563 | 1538.7

Conditions | mass density [kg/m3] | refractive index
[1] | 862.2 | –
[2] | – | 1.494
